Experimental data published in BindingDB's records for doi:10.1021/acs.jmedchem.0c01741 (Zhengzhou University, 2020).

Experiment: Inhibition of ABCB1 in multidrug-resistant human SW620/Ad300 cells assessed as increase in reversal of resistance to paclitaxel-induced cytotoxicity by measuring paclitaxel IC50 pre-incubated for 4 hrs followed by paclitaxel addition and measured after 72 hrs by MTT assay (Rvb = 4.23 +/- 0.6 uM)

Question: For `Cc1cc(Nc2ccc(F)cc2)n2nc(SCc3nc4ccccc4[nH]3)nc2n1`, which IC50 is on record?
Answer: 22 nM

Question: For `Cc1cc(Nc2ccc(C#N)cc2)n2nc(SCc3nc4ccccc4[nH]3)nc2n1`, which IC50 is on record?
Answer: 590 nM

Question: For `Cc1cc(Nc2ccc(C(=O)O)cc2)n2nc(SCc3nc4ccccc4[nH]3)nc2n1`, which IC50 is on record?
Answer: 4080 nM

Question: Which IC50 does the source give for `COc1cc(Nc2cc(C)nc3nc(SCc4nc5ccccc5[nH]4)nn23)cc(OC)c1OC` here?
Answer: 250 nM

Question: With `Cc1ccc(Nc2cc(C)nc3nc(SCc4nc5ccccc5[nH]4)nn23)cc1` as the compound, how does the IC50 read?
Answer: 500 nM

Question: Which IC50 does the source give for `Cc1cc(Nc2ccc(Br)cc2)n2nc(SCc3nc4ccccc4[nH]3)nc2n1` here?
Answer: 450 nM

Question: For `O=c1cc(-c2ccccc2)[nH]c2nc(SCc3nc4ccccc4[nH]3)nn12`, which IC50 is on record?
Answer: 660 nM

Question: For `Cc1cc(Nc2ccc(N3CCN(C)CC3)cc2)n2nc(SCc3nc4ccccc4[nH]3)nc2n1`, which IC50 is on record?
Answer: 1590 nM

Question: For `Cc1cc(Nc2cc(C)[nH]n2)n2nc(SCc3nc4ccccc4[nH]3)nc2n1`, which IC50 is on record?
Answer: 1570 nM

Question: For `Cc1cc(Nc2ccc3c(C)cc(=O)oc3c2)n2nc(SCc3nc4ccccc4[nH]3)nc2n1`, which IC50 is on record?
Answer: 1140 nM

Question: For `C#Cc1cccc(Nc2cc(C)nc3nc(SCc4nc5ccccc5[nH]4)nn23)c1`, which IC50 is on record?
Answer: 1430 nM

Question: For `Cc1cc(Nc2ccc(O)cc2)n2nc(SCc3nc4ccccc4[nH]3)nc2n1`, which IC50 is on record?
Answer: 2380 nM

Question: Which IC50 does the source give for `COc1cccc(Nc2cc(C)nc3nc(SCc4nc5ccccc5[nH]4)nn23)c1` here?
Answer: 570 nM

Question: With `COc1ccc(Nc2cc(C)nc3nc(SCc4nc5ccccc5[nH]4)nn23)cc1` as the compound, how does the IC50 read?
Answer: 320 nM

Question: For `Cc1cc(Nc2ccc(Cl)cc2Cl)n2nc(SCc3nc4ccccc4[nH]3)nc2n1`, which IC50 is on record?
Answer: 710 nM

Question: With `CC(=O)c1ccc(Nc2cc(C)nc3nc(SCc4nc5ccccc5[nH]4)nn23)cc1` as the compound, how does the IC50 read?
Answer: 760 nM

Question: For `Cc1cc(Nc2ccc(OC(F)(F)F)cc2)n2nc(SCc3nc4ccccc4[nH]3)nc2n1`, which IC50 is on record?
Answer: 720 nM

Question: Which IC50 does the source give for `Cc1cc(Nc2ccc(C(F)(F)F)cc2)n2nc(SCc3nc4ccccc4[nH]3)nc2n1` here?
Answer: 850 nM

Question: Which IC50 does the source give for `Cc1ccc(Nc2cc(C)nc3nc(SCc4nc5ccccc5[nH]4)nn23)c(F)c1` here?
Answer: 630 nM

Question: For `Cc1cc(Nc2ccc(F)c(C)c2)n2nc(SCc3nc4ccccc4[nH]3)nc2n1`, which IC50 is on record?
Answer: 470 nM

Question: With `Cc1cc(Nc2ccc(F)c(Cl)c2)n2nc(SCc3nc4ccccc4[nH]3)nc2n1` as the compound, how does the IC50 read?
Answer: 770 nM

Question: Which IC50 does the source give for `Cc1cc(Nc2cccc(F)c2)n2nc(SCc3nc4ccccc4[nH]3)nc2n1` here?
Answer: 520 nM

Question: For `Cc1cc(Nc2ccccc2F)n2nc(SCc3nc4ccccc4[nH]3)nc2n1`, which IC50 is on record?
Answer: 220 nM

Question: For `Cc1cc(Nc2ccc(F)cc2)n2nc(SCC(=O)c3ccccc3)nc2n1`, which IC50 is on record?
Answer: 1260 nM

Question: For `Cc1cc(Nc2ccc(F)cc2)n2nc(SCc3csc4ccc(Cl)cc34)nc2n1`, which IC50 is on record?
Answer: 2840 nM

Question: Which IC50 does the source give for `Cc1cc(Nc2ccc(F)cc2)n2nc(SCC3CC3)nc2n1` here?
Answer: 4110 nM

Question: With `C#CCSc1nc2nc(C)cc(Nc3ccc(F)cc3)n2n1` as the compound, how does the IC50 read?
Answer: 3360 nM

Question: Which IC50 does the source give for `C=CCSc1nc2nc(C)cc(Nc3ccc(F)cc3)n2n1` here?
Answer: 4200 nM

Question: With `CCCSc1nc2nc(C)cc(Nc3ccc(F)cc3)n2n1` as the compound, how does the IC50 read?
Answer: 3540 nM

Question: With `Cc1cc(Nc2ccc(F)cc2)n2nc(SCCCc3ccccc3)nc2n1` as the compound, how does the IC50 read?
Answer: 4220 nM

Question: Which IC50 does the source give for `Cc1cc(Nc2ccc(F)cc2)n2nc(SCCc3ccccc3)nc2n1` here?
Answer: 1550 nM

Question: With `Cc1cc(Nc2ccc(F)cc2)n2nc(SCc3cccc4ccccc34)nc2n1` as the compound, how does the IC50 read?
Answer: 1740 nM

Question: With `Cc1cc(Nc2ccc(F)cc2)n2nc(SCc3c(Cl)cccc3Cl)nc2n1` as the compound, how does the IC50 read?
Answer: 1930 nM

Question: For `Cc1cc(Nc2ccc(F)cc2)n2nc(SCc3cccc([N+](=O)[O-])c3)nc2n1`, which IC50 is on record?
Answer: 1990 nM

Question: For `Cc1cc(Nc2ccc(F)cc2)n2nc(SCc3ccc([N+](=O)[O-])cc3)nc2n1`, which IC50 is on record?
Answer: 2280 nM

Question: Which IC50 does the source give for `Cc1cc(Nc2ccc(F)cc2)n2nc(SCc3ccc(C(F)(F)F)cc3)nc2n1` here?
Answer: 2570 nM

Question: For `Cc1cc(Nc2ccc(F)cc2)n2nc(SCc3cccc(Br)c3)nc2n1`, which IC50 is on record?
Answer: 2040 nM

Question: Which IC50 does the source give for `Cc1cc(Nc2ccc(F)cc2)n2nc(SCc3ccccc3Br)nc2n1` here?
Answer: 1640 nM

Question: With `Cc1cc(Nc2ccc(F)cc2)n2nc(SCc3ccc(Br)cc3)nc2n1` as the compound, how does the IC50 read?
Answer: 1370 nM

Question: Which IC50 does the source give for `Cc1cc(Nc2ccc(F)cc2)n2nc(SCc3ccc(Cl)cc3)nc2n1` here?
Answer: 1890 nM

Question: Which IC50 does the source give for `Cc1cc(Nc2ccc(F)cc2)n2nc(SCc3ccc(F)cc3)nc2n1` here?
Answer: 1270 nM

Question: Which IC50 does the source give for `CC(C)c1cc(Nc2ccc(F)cc2)n2nc(SCc3ccccc3)nc2n1` here?
Answer: 1440 nM

Experiment: Inhibition of ABCB1 in multidrug-resistant human SW620/Ad300 cells assessed as increase in reversal of resistance to paclitaxel-induced cytotoxicity by measuring paclitaxel IC50 at 10 uM pre-incubated for 4 hrs followed by paclitaxel addition and measured after 72 hrs by MTT assay (Rvb = 4233.18 +/- 499.10 nM)

Question: With `Cc1cc(Nc2ccc(F)cc2)n2nc(SCc3nc4ccccc4[nH]3)nc2n1` as the compound, how does the IC50 read?
Answer: 73.6 nM

Experiment: Inhibition of ABCB1 (unknown origin) expressed in HEK293 cells assessed as increase in reversal of resistance to paclitaxel-induced cytotoxicity by measuring paclitaxel IC50 at 10 uM pre-incubated for 4 hrs followed by paclitaxel addition and measured after 72 hrs by MTT assay (Rvb = 91.40 +/- 23.32 nM)

Question: For `Cc1cc(Nc2ccc(F)cc2)n2nc(SCc3nc4ccccc4[nH]3)nc2n1`, which IC50 is on record?
Answer: 10 nM

Experiment: Inhibition of ABCB1 in multidrug-resistant human KB-C2 cells assessed as increase in reversal of resistance to paclitaxel-induced cytotoxicity by measuring paclitaxel IC50 at 20 uM pre-incubated for 4 hrs followed by paclitaxel addition and measured after 72 hrs by MTT assay (Rvb = 1886.37 +/- 243.05 nM)

Question: For `Cc1cc(Nc2ccc(F)cc2)n2nc(SCc3nc4ccccc4[nH]3)nc2n1`, which IC50 is on record?
Answer: 4.8 nM

Experiment: Inhibition of ABCB1 in multidrug-resistant human SW620/Ad300 cells assessed as increase in reversal of resistance to paclitaxel-induced cytotoxicity by measuring paclitaxel IC50 at 20 uM pre-incubated for 4 hrs followed by paclitaxel addition and measured after 72 hrs by MTT assay (Rvb = 4233.18 +/- 499.10 nM)

Question: For `Cc1cc(Nc2ccc(F)cc2)n2nc(SCc3nc4ccccc4[nH]3)nc2n1`, which IC50 is on record?
Answer: 22 nM

Experiment: Inhibition of ABCB1 in multidrug-resistant human KB-C2 cells assessed as increase in reversal of resistance to paclitaxel-induced cytotoxicity by measuring paclitaxel IC50 at 10 uM pre-incubated for 4 hrs followed by paclitaxel addition and measured after 72 hrs by MTT assay (Rvb = 1886.37 +/- 243.05 nM)

Question: For `Cc1cc(Nc2ccc(F)cc2)n2nc(SCc3nc4ccccc4[nH]3)nc2n1`, which IC50 is on record?
Answer: 22 nM

Experiment: Inhibition of ABCB1 (unknown origin) expressed in HEK293 cells assessed as increase in reversal of resistance to paclitaxel-induced cytotoxicity by measuring paclitaxel IC50 at 20 uM pre-incubated for 4 hrs followed by paclitaxel addition and measured after 72 hrs by MTT assay (Rvb = 91.40 +/- 23.32 nM)

Question: With `Cc1cc(Nc2ccc(F)cc2)n2nc(SCc3nc4ccccc4[nH]3)nc2n1` as the compound, how does the IC50 read?
Answer: 5 nM
